Experimental data: paper PMC8388879 (Antioxidants, 2021)

Assays:
[1] = biological target: mushroom TYR (tyrosinase); assay: dopachrome formation from L-DOPA (A475), commercial mushroom TYR; IC50 […] at […] L-DOPA, […] at […]; also traps dopaquinone; type: biochemical
human TYR (tyrosinase) = biological target: T1, human TYR (tyrosinase) (Homo sapiens, UniProt P14679); assay: dopachrome formation (A475) in lysate of HEK293 cells expressing human TYR; […] inhibition at […] (dopaquinone trapping may contribute); type: cell-based
T1 sequence (P14679 19-529): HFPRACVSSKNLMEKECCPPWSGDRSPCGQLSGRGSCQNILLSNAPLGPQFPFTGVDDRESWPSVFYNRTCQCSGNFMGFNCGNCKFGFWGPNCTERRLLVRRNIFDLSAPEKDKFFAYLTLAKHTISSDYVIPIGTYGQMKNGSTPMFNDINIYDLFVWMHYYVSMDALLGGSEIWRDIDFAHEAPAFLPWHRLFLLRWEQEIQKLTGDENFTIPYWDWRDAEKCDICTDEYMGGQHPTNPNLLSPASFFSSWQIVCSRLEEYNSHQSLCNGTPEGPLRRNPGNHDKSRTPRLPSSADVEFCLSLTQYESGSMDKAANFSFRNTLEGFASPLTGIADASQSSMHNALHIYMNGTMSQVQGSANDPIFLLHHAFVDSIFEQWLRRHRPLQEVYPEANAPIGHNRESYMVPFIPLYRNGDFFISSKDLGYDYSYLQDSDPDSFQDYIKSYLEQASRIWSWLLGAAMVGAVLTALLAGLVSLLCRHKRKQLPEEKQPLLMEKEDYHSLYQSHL

| Compound | IC50 [1] [µM] | inhibition at 200 µM (human TYR (tyrosinase)) [%] |
| --- | --- | --- |
| NC(=O)[C@@H](N)CS [C-NH2, L-Cysteinamide] | 115 | – |
| N[C@@H](CS)C(=O)O [L-cysteine] | – | 70 |
